Data set [1] can be described thus: Plasma concentration in mouse infected with Candida albicans at 60 mg/kg, po after 24 hrs. More on the design: dose 60 mg/kg, route oral. The format is ADME, organism-based. As to conditions: read-out: MIC.
Data set [2] relates to Candida albicans. In words: Antifungal activity against Candida albicans infected in mouse assessed as fungal load in brain at 60 mg/kg, po after 10 days. The format is functional.
The test system of data set [3] is Candida albicans. In words: Antifungal activity against Candida albicans infected in mouse assessed as decrease in fungus-induced mortality rate at 60 mg/kg, po. The format is functional, organism-based. Set-up: dose 60 mg/kg.
Data set [4] can be described thus: Plasma concentration in mouse infected with Candida albicans at 60 mg/kg, po after 6 hrs. The format is ADME, organism-based. More on the design: dose 60 mg/kg, route oral. As to conditions: read-out: MIC.
Data set [5] relates to Candida albicans. The data set is described as follows: Antifungal activity against Candida albicans. The format is functional.
Data set [6] in a line: Plasma concentration in mouse infected with Candida albicans at 60 mg/kg, po after 3 hrs. The format is ADME, organism-based. More on the design: dose 60 mg/kg, route oral. Particulars: read-out: MIC.
A short description of data set [7]: Plasma concentration in mouse infected with Candida albicans at 60 mg/kg, po after 12 hrs. The format is ADME, organism-based. Set-up: dose 60 mg/kg, route oral. Particulars: read-out: MIC.
The subject of data set [8] is Candida albicans. In words: Antifungal activity against Candida albicans infected in mouse assessed as decrease in fungus-induced mortality rate at 10 mg/kg, ip. The format is functional, organism-based. More on the design: dose 10 mg/kg.
Data set [9] can be described thus: Plasma concentration in mouse infected with Candida albicans at 60 mg/kg, po after 1 hr. Set-up: dose 60 mg/kg, route oral. The format is ADME, organism-based. Particulars: read-out: MIC.
A short description of data set [10]: Plasma concentration in mouse infected with Candida albicans at 10 mg/kg, ip after 12 hrs. More on the design: dose 10 mg/kg, route intraperitoneal. The format is ADME, organism-based. Particulars: read-out: MIC.
The nature of data set [11]: Plasma concentration in mouse infected with Candida albicans at 10 mg/kg, ip after 24 hrs. As to conditions: read-out: MIC. The format is ADME, organism-based. Set-up: dose 10 mg/kg, route intraperitoneal.
The test system of data set [12] is Candida albicans. In words: Antifungal activity against Candida albicans infected in mouse assessed as decrease in fungus-induced mortality rate at 5 mg/kg, ip. The format is functional, organism-based. More on the design: dose 5 mg/kg.
The nature of data set [13]: Plasma concentration in mouse infected with Candida albicans at 5 mg/kg, ip after 1 hr. The format is ADME, organism-based. More on the design: dose 5 mg/kg, route intraperitoneal. As to conditions: read-out: MIC.
Data set [14] can be described thus: Plasma concentration in mouse infected with Candida albicans at 10 mg/kg, ip after 1 hr. The format is ADME, organism-based. Set-up: dose 10 mg/kg, route intraperitoneal. As to conditions: read-out: MIC.
Data set [15] can be described thus: Plasma concentration in mouse infected with Candida albicans at 5 mg/kg, ip after 6 hrs. The format is ADME, organism-based. More on the design: dose 5 mg/kg, route intraperitoneal. As to conditions: read-out: MIC.
Data set [16] in a line: Plasma concentration in mouse infected with Candida albicans at 10 mg/kg, ip after 6 hrs. The format is ADME, organism-based. More on the design: dose 10 mg/kg, route intraperitoneal. As to conditions: read-out: MIC.
Data set [17] has as its system Candida albicans. In words: Antifungal activity against Candida albicans infected in mouse assessed as fungal load in brain at 10 mg/kg, ip after 10 days. The format is functional. Particulars: route intraperitoneal.
Data set [18] is described as follows: Plasma concentration in mouse infected with Candida albicans at 10 mg/kg, ip after 3 hrs. The format is ADME, organism-based. Set-up: dose 10 mg/kg, route intraperitoneal. As to conditions: read-out: MIC.
The nature of data set [19]: Plasma concentration in mouse infected with Candida albicans at 5 mg/kg, ip after 3 hrs. The format is ADME, organism-based. Set-up: dose 5 mg/kg, route intraperitoneal. Particulars: read-out: MIC.
For data set [20], the system named is Candida albicans. In words: Antifungal activity against Candida albicans infected in mouse assessed as decrease in fungal load in brain at 5 mg/kg, ip after 10 days. The format is functional, organism-based. Set-up: dose 5 mg/kg.
The nature of data set [21]: Plasma concentration in mouse infected with Candida albicans at 5 mg/kg, ip after 24 hrs. The format is ADME, organism-based. More on the design: dose 5 mg/kg, route intraperitoneal. Particulars: read-out: MIC.
Data set [22] can be described thus: Plasma concentration in mouse infected with Candida albicans at 5 mg/kg, ip after 12 hrs. The format is ADME, organism-based. More on the design: dose 5 mg/kg, route intraperitoneal. Particulars: read-out: MIC.

Values after ≈ are worked out from the molar mass of the structure shown. Active and inactive are the calls of the source. Numbered stars: 1 amine (or outer) side, 2 acyl side, 3 side chain; on linkers, the order of the positions; unused ones are H or OH. Bridge positions count the residues as written; N and C are the ends. Square brackets hold non-standard residues; d marks the D form. Peptide text beside a SMILES is read from it. * marks the point of attachment. pTerphenylCO(4''-OnC5H11) = CCCCCOc1ccc(-c2ccc(-c3ccc(C(=O)*)cc3)cc2)cc1; Orn(4R-OH,5R-OH) = O=C([C@H](C[C@@H](O)[C@@H](O)N[*:3])N[*:1])[*:2]; hTyr(3S-OH,4S-OH) = N[C@H](C(=O)O)[C@H](O)[C@@H](O)c1ccc(O)cc1; Pro(3S-OH,4S-Me) = C[C@H]1CN[C@H](C(=O)O)[C@H]1O; Hyp = O=C(O)[C@@H]1C[C@@H](O)CN1

As a reminder, the MIC is the smallest concentration in the dilution series that meets the test's criterion for growth inhibition. Low values mean greater potency, high ones weaker potency.

Regarding `C[C@@H](c1ncncc1F)[C@](O)(Cn1cncn1)c1ccc(F)cc1F` [VORICONAZOLE], in data set [1], the concentration at 24 h was 160 ng/mL. For the same molecule, in data set [2], the log10CFU/g is on record as 3.23. Also, in [3], the inhibition entry is “Active”. For the same molecule, the concentration at 6 h in data set [4] worked out at 9470 ng/mL. The same molecule gave a minimal inhibitory concentration (MIC) in data set [5] of 0.06 µg/mL (≈ 0.172 µM). Further, the concentration at 3 h in data set [6] was found to be 7280 ng/mL. In addition, in data set [7], the concentration at 12 h amounted to 5370 ng/mL. Also, the result in [8] was Active. Also, the concentration at 1 h in data set [9] came to 7410 ng/mL.
For `CCCCCOc1ccc(-c2ccc(-c3ccc(C(=O)N[C@H]4C[C@@H](O)[C@@H](O)NC(=O)[C@@H]5[C@@H](O)[C@@H](C)CN5C(=O)[C@H]([C@@H](C)O)NC(=O)[C@H]([C@H](O)[C@@H](O)c5ccc(O)cc5)NC(=O)[C@@H]5C[C@@H](O)CN5C(=O)[C@H]([C@@H](C)O)NC4=O)cc3)cc2)cc1` [ANIDULAFUNGIN] ({pTerphenylCO(4''-OnC5H11)}-[Orn(4R-OH,5R-OH)]T[Hyp][hTyr(3S-OH,4S-OH)]T[Pro(3S-OH,4S-Me)]; lactam 1-C), the results for the concentration at 12 h in [10] and in [22] were 2730 ng/mL and 1180 ng/mL, respectively. Besides, the concentration at 24 h in [11] was 1390 ng/mL; in [21] it was 180 ng/mL. Also, the inhibition result in data set [12] and in data set [20] was “inactive” in each case. Besides, the concentration at 1 h is 2500 ng/mL in [13] and 4020 ng/mL in [14]. Further, the concentration at 6 h in data set [15] amounted to 1660 ng/mL; in [16] it was 3180 ng/mL. Moreover, inhibition of growth in [5] (MIC) required 0.03 µg/mL (≈ 0.0263 µM). Also, in data set [17], the log10CFU/g is 2.65. The concentration at 3 h in data set [18] was 4910 ng/mL; in data set [19] it was 1730 ng/mL.

The values above are taken from ChEMBL document CHEMBL1649564, “Anidulafungin treatment of candidal central nervous system infection in a murine model” (Antimicrob Agents Chemother, 2009).
